The record followed here is paper PMC5526551, “New hydrazonoindolin-2-ones: Synthesis, exploration of the possible anti-proliferative mechanism of action and encapsulation into PLGA microspheres” (PLoS ONE, 2017).

The test system of assay [1] is A549. In words: Anti-proliferative activity, cell growth inhibition (CellTiterGlo, 72 h). In kind it is cell-based, human. The following applies: Homo sapiens; for IC50: A549, 72 h, read-out: IC50 A-549; for inhibition at 30 µM: A549, quadruplicate, read-out: Cell growth inhibitory activity, A-549. As for the experimental part: (§1) Twenty compounds, i.e. 4a-o and 7a-e, were analyzed for cancer cell growth inhibitory activity. These studies were carried out using cells derived from human lung, colon and breast tumors (A549, HT-29 and ZR-75 cells, respectively). This initial assessment of activity tested each compound in quadruplicate at a single concentration of 30 μM, if solubility permitted.
(§2) A549, HT-29, ZR-75 were obtained from the American Type Culture Collection (ATCC). Cells were harvested from 90-95% confluent 10 cm dishes, and diluted in growth media (RPMI-1640 supplemented with 5% fetal bovine serum). An appropriate concentration of cells were prepared to add 1,250 cells in a volume of 25 µL per well in tissue culture treated Griener 384-well microplates, then incubated overnight at 37°C. Compound 7e was diluted to a concentration of 30 µM in DMSO. Concentrated dosing solutions of twice the final concentration were prepared by dilution of the DMSO stocks 1:500 in growth media. Two-fold serial dilutions were then prepared in medium containing 0.2% DMSO to maintain a constant concentration of vehicle throughout the concentration range of the compound. Each of these was added in an equal volume (25 µL) to four wells on each cell assay plate, along with the vehicle control. The highest concentration for serial dilutions of the positive control (sunitinib) was prepared exactly as the experimental compound 7e. Cells were incubated with the compounds for a further 72 h.
(§3) At the end of the treatment period, assay plates were allowed to cool to RT for 10 min prior to the addition of 25 µL per well Promega CellTiterGlo reagent, followed by additional 10 min incubation at RT. The resulting luminescence was quantitated using a Molecular Devices Spectramax Paradigm.
(§4) Percent growth inhibition was calculated as follows, where 100 represents the viability of vehicle treated control samples:
(§5) The potency of compounds was determined using the non-linear dose response algorithm (four-parameter logistic fit) with GraphPad Prism 5 software.

Assay [2] concerns HT-29. The assay is described as above. In kind it is cell-based, human. The following applies: Homo sapiens; for IC50: HT-29, 72 h, 72 h; for inhibition at 30 µM: HT-29, quadruplicate, read-out: Cell growth inhibitory activity, HT-29. How it is done: as §1, §2, §3, §4, §5
Assay [3] concerns ZR-75. The description is as above. Type of assay: cell-based, human. The following applies: Homo sapiens; for IC50: ZR75, 72 h; for inhibition at 30 µM: ZR75, quadruplicate, read-out: Cell growth inhibitory activity, ZR-75. How it is done: as §1, §2, §3, §4, §5
Assay [4] has as its system phosphorylated Rb protein in A549 cells. Nature of the assay: Rb phosphorylation (immunofluorescent imaging). The following applies: Homo sapiens, read-out: IC50 for reduction in Rb phosphorylation. Type of assay: cell-based. How it is done: Compound 7e was analyzed for effects on various aspects of cell cycle progression in human cancer cells. These studies were carried out using cells derived from lung adenocarcinoma (A549). This follow-up assessment of activity tested compounds used immunofluorescent imaging of phosphorylated Rb protein and the total DNA content of each cell to determine the cell cycle phase. The ability of the test compounds to affect the cell cycle and Rb phosphorylation was tested over a range of concentrations from less than 100 nM to 50 μM.
Fig 5 Dose-dependent changes in cell cycle. Distribution of cells within the cell cycle as well as total cell numbers were quantitated by fluorescent staining of nuclear DNA with DAPI. Phosphorylated Rb protein was detected by indirect immunofluorescence followed by automated image acquisition and analysis. […] All IC50 values are given under one unlabelled substance, with the y-axis title of each plot written in front as the measure.
A549 cells were harvested from a 90% confluent 10 cm dish and diluted in growth medium. An appropriate concentration of cells were prepared to add 5,000 cells in a volume of 100 µL per well in tissue culture treated PerkinElmer optical bottom ViewPlate microplates, then incubated overnight at 37°C. The following day, compound 7e and the positive control, sunitinib, were diluted in DMSO to concentrations 1000-fold above the maximum tested concentration.
Concentrated dosing solutions of twice the final concentration were prepared by dilution of the DMSO stocks 1:500 in growth media. Three-fold dilutions of each dosing medium were then prepared in medium containing 0.2% DMSO to maintain a constant concentration of vehicle throughout the concentration range of each compound. Each of these was added in equal volume (100 µL) to each well on the assay plate, along with the vehicle control. One plate of cells was incubated with the compounds for a further 24 h, and a separate plate was incubated with the compounds for 48 h.
At the end of the respective treatment periods, 150 µL per well of neutral buffered formalin fixative (10% paraformaldehyde) was rapidly added to each plate and incubated at room temperature for 20 min. […] Phosphorylated Rb protein (p-Rb) was detected by 1 h incubation with anti-p-Rb rabbit monoclonal antibody (Cell Signaling #8516) diluted 1:1600 in antibody dilution buffer (1% bovine serum albumin and 0.3% Triton X-100 in PBS). […] Anti-Phospho Ser807/811-Rb antibody (Cell Signalling cat #8516) was detected by 1 h incubation with goat anti-rabbit AlexaFluor 488 conjugate (InVitrogen cat #A-11008) diluted 1:500 in antibody dilution buffer. […] Fluorescent micrographs were analyzed using Molecular Devices MetaXpress multi-wavelength scoring image analysis program to quantitate Rb phosphorylation. […]

Like-named read-outs stand apart in the source and are kept apart here.

The IC50 is the concentration that gives 50% inhibition. For `O=C1Nc2ccc(Br)cc2C1=NN=C1C(=O)N(Cc2ccccc2)c2ccccc21` [Compound 7e, 1-Benzyl-3-((5-bromo-2-oxoindolin-3-ylidene)hydrazono)indolin-2-one], the IC50 is 2.83 µM in assay [1]; 2.49 µM in assay [2]; 1.79 µM in assay [3]; 2.55 µM in assay [4] (A549, 24 h); 2.47 µM in assay [4] (A549, 48 h). Moreover, the inhibition at 30 µM came out at 97.1 ± 3.3% in assay [1], 95.7 ± 4.2% in assay [2] and 96.1 ± 4.6% in assay [3].

Regarding `CCN(CC)CCNC(=O)c1c(C)[nH]c(/C=C2\C(=O)Nc3ccc(F)cc32)c1C` [Sunitinib, sunitinib, reference compound], the half-maximal inhibitory concentration (IC50) amounted to 5.87 µM in assay [1]; 10.1 µM in assay [2]; 8.31 µM in assay [3]; 3.16 µM in assay [4] (A549, 24 h); 14 µM in assay [4] (A549, 48 h). Further, the inhibition at 30 µM in assay [1] came out at 85.7 ± 2.7%; in assay [2], 59.5 ± 2.3%; in assay [3], 90.7 ± 4.5%.
